From US20250281424A1 (New York Blood Center, Inc, priority 2020, published 2025)

Biological target: T1, human PF4 (Homo sapiens, UniProt P02776)
T1 construct: PF4 is a 70 amino acid, lysine-rich 7.8 kDa platelet-specific protein; made in house; host or cells: Escherichia coli BL21DE3 pLysS (pT7-7) and/or Drosophila S2 cells
T1 sequence (P02776 32-101): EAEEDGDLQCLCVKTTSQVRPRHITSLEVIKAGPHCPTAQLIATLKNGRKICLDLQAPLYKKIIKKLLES
Assay: Inhibition of PF4 tetramer formation (BS3 cross-linking, SDS-PAGE)
Format: biochemical
Details: for inhibition at 5 µM: 5 μM inhibitor; for inhibition at 5 µM / inhibition at 10 µM / inhibition at 1 µM / inhibition at 3 µM: read-out: % inhibition of PF4 tetramer formation at single concentration of inhibitor; for inhibition at 10 µM: 10 μM inhibitor (column A); for IC50: read-out: IC50 of PF4 tetramer formation inhibition; for inhibition at 1 µM: 1 μM inhibitor; for inhibition at 3 µM: 3 μM inhibitor (column A)
Protocol: Compounds of Examples 1-38, 65-301, 303, 305, 307, 309, 311, 313, 314, 316, and 318-404 were tested using SDS PAGE analysis of BS3 crosslinked PF4 for their ability to prevent PF4 tetramer formation. […] See, Suvarna et al., Throm. Res, 122:211-220 (2008), which is hereby incorporated by reference, at least for a detailed description of this technique.
cDNA encoding human PF4 was cloned into the plasmid μMT/BiPN5-His A (Invitrogen Corp., Carlsbad CA) for expression in the Drosophila Expression System (Invitrogen, Carlsbad, CA). Cloning was performed using Bg1 II and Age I cloning sites. A hexanucleotide encoding Bg1 II site was then eliminated by site-directed mutagenesis so that the expressed protein contained full-length wild type (wt) PF4 or PF4^K50E with an identical sequence as their counterparts expressed in E. coli. See, method described in Sachais et al (Sachais, B. S. et al. (2012). Blood 119(25): 5955-5961). PF4 expression was induced by adding copper sulfate (0.5 mM). The induced S2 cells were incubated in serumfree Insect-Xpress™ media (Lonza, Walkersville, MD) for 3-5 days; supernatants were collected, sodium azide (0.02% final concentration) and EDTA (2.5 mM final concentration) were added, and the media were filtered through an Express® PLUS 0.22 μm filter (Millipore Corp., Billerica, MA).
Wild-type (WT) human PF4 in the pT7-7 vector (Novagen, Madison, WI) was expressed in the Escherichia coli strain BL21DE30 pLysS (Stratagene, La Jolla, CA), and purified and characterized as described by Rauova et al. (Rauova, L. et al. (2006). Blood 107(6): 2346-2353) and Park et al., (Blood, 75:1290-1295 (1990)), which are hereby incorporated by reference. Briefly, recombinant protein was isolated from the supernatant of the bacterial lysate by affinity chromatography using a HiTrap high-performance (HP) affinity column. WT PF4 was purified from the media on a heparin HiTrap® column on an ÄTKAPrime™ system (GE Healthcare) at 4° C. in Tris (10 mM), EDTA (1 mM), and pH 8 buffer. Media was loaded in buffer containing NaCl (0.5 M) and PF4 was eluted at 1.8 M NaCl using a linear gradient. Fractions containing purified PF4 as detected by silver staining of 12% NuPAGE Bis-Tris gels (Invitrogen) were pooled, concentrated and buffer exchanged into 50 mM HEPES, 0.5 M NaCl, pH—7.2 using an Amicon® Ultra centrifugal filter (3K NMWL, Millipore Corp). Protein was quantified using a BCA assay.
Compounds of Examples 1-38, 65-196, and 209-228 were then tested for their ability to inhibit PF4 tetramer formation using a cross-linking assay as described in Rauova cited above. Specifically, hPF4 (10 μg/ml) in phosphate-buffered saline (PBS) was incubated at 37° C. for 15 min in the absence of the antagonistic compounds (control sample) and presence of compounds. Cross-linking and SDS-PAGE analysis were then performed as described in “Analysis of PF4 multimerization” of Rauova. The relative amounts of PF4 in each of the monomer, dimer, trimer and tetramer form were calculated by analyzing the samples on a 12% SDS-polyacrylamide gel under reducing conditions. Bands were quantified using the Kodak ID Image Analysis system (Kodak, Rochester, NY). The SigmaMarker™ reagent served as the molecular weight standard. Data was compiled and bar graphed as % PF4 for the tetramer, trimer, dimer, and monomer as a function of concentration for the test and control samples.
This experiment was performed in a manner similar to experiment 1, but PF4 (10 μg/ml) in PBS was independently incubated with compounds of Examples 1-38, 65-196, and 209-228 for 60 min at room temperature, followed by the addition of cross-linking reagent bis(sulfosuccinimidyl)suberate (0.2 mM) for 30 min at room temperature. The reaction was stopped by adding NuPAGE® lithium dodecyl sulfate (LDS) sample buffer, and denatured by heating to 70° C. for 10 min according to the manufacturer's instructions. […]

SMILES	inhibition at 5 µM [%]	inhibition at 10 µM [%]	IC50 [µM]	inhibition at 1 µM [%]	inhibition at 3 µM [%]
CC[C@H](NC(=O)OCc1ccccc1)C(=O)C1C(=O)c2ccc(C(=O)c3ccc4c(c3)C(=O)C(C(=O)[C@H](CC)NC(=O)OCc3ccccc3)C4=O)cc2C1=O (stereo partly drawn) [Example 165, benzyl N—[(S)-1-(5-{2-[(2S)-2-{[(benzyloxy)carbonyl]amino}butanoyl]-1,3-dioxo-2,3-dihydro-1H-indene-5-carbonyl}-1,3-dioxo-2,3-dihydro-1H-inden-2-yl)-1-oxobutan-2-yl]carbamate]	75	75	3.3		
O=C(c1ccc2c(c1)C(=O)C(C(=O)C1CCOC1)C2=O)c1ccc2c(c1)C(=O)C(C(=O)C1CCOC1)C2=O (stereo not drawn) [Example 146, 5-[1,3-dioxo-2-(oxolane-3-carbonyl)-2,3-dihydro-1H-indene-5-carbonyl]-2-(oxolane-3-carbonyl)-2,3-dihydro-1H-indene-1,3-dione]	44	40			
O=C1c2ccc(S(=O)(=O)c3ccc4c(c3)C(=O)C(C(=O)C3CC3)C4=O)cc2C(=O)C1C(=O)C1CC1 (stereo not drawn) [Example 402, 2-cyclopropanecarbonyl-5-[(2-cyclopropanecarbonyl-1,3-dioxo-2,3-dihydro-1H-inden-5-yl)sulfonyl]-2,3-dihydro-1H-indene-1,3-dione]				24	28
O=C(c1ccc2c(c1)C(=O)C(C(=O)CCC(=O)c1cccc(Cl)c1Cl)C2=O)c1ccc2c(c1)C(=O)C(C(=O)CCC(=O)c1cccc(Cl)c1Cl)C2=O (stereo not drawn) [Example 253, 2-[4-(2,3-dichlorophenyl)-4-oxobutanoyl]-5-{2-[4-(2,3-dichlorophenyl)-4-oxobutanoyl]-1,3-dioxo-2,3-dihydro-1H-indene-5-carbonyl}-2,3-dihydro-1H-indene-1,3-dione]				20	20
COC(=O)[C@@H]1C[C@H]1C(=O)C1C(=O)c2ccc(C(=O)c3ccc4c(c3)C(=O)C(C(=O)[C@@H]3C[C@H]3C(=O)OC)C4=O)cc2C1=O (stereo partly drawn) [Example 217, methyl (1R,2R)-2-(5-{2-[(1R,2R)-2-(methoxycarbonyl)cyclopropanecarbonyl]-1,3-dioxo-2,3-dihydro-1H-indene-5-carbonyl}-1,3-dioxo-2,3-dihydro-1H-indene-2-carbonyl)cyclopropane-1-carboxylate]	91	95	1.2		
CO[C@H](C)[C@H](N)C(=O)C1C(=O)c2ccc(C(=O)c3ccc4c(c3)C(=O)C(C(=O)[C@@H](N)[C@@H](C)OC)C4=O)cc2C1=O (stereo partly drawn) [Example 128, 2-[(2S,3R)-2-amino-3-methoxybutanoyl]-5-{2-[(2S,3R)-2-amino-3-methoxybutanoyl]-1,3-dioxo-2,3-dihydro-1H-indene-5-carbonyl}-2,3-dihydro-1H-indene-1,3-dione]	51	87	7.8		
CSCC[C@H](NC(=O)OC(C)(C)C)C(=O)C1C(=O)c2ccc(C(=O)c3ccc4c(c3)C(=O)C(C(=O)[C@H](CCSC)NC(=O)OC(C)(C)C)C4=O)cc2C1=O (stereo partly drawn) [Example 271, tert-butyl N-[(2S)-1-(5-{2-[(2S)-2-{[(tert-butoxy)carbonyl]amino}-4-(methylsulfanyl)butanoyl]-1,3-dioxo-2,3-dihydro-1H-indene-5-carbonyl}-1,3-dioxo-2,3-dihydro-1H-inden-2-yl)-4-(methylsulfanyl)-1-oxobutan-2-yl]carbamate]				21	38
CC(=O)C1(C(=O)OC(C)C)C(=O)c2ccc(Oc3ccc4c(c3)C(=O)CC4=O)cc2C1=O (stereo not drawn) [Example 8, ethyl 2-acetyl-5-(1,3-dioxo-indan-5-yloxy)-1,3-dioxo-indan-2-carboxylic acid isopropyl ester]			3.4		
Cc1ccccc1NC(=O)C1C(=O)c2ccc(C(=O)c3ccc4c(c3)C(=O)C(C(=O)Nc3ccccc3C)C4=O)cc2C1=O (stereo not drawn) [Example 81, N-(2-methylphenyl)-5-{2-[(2-methylphenyl)carbamoyl]-1,3-dioxo-2,3-dihydro-1H-indene-5-carbonyl}-1,3-dioxo-2,3-dihydro-1H-indene-2-carboxamide]			4.6		
CC(C(=O)C1C(=O)c2ccc(S(=O)(=O)c3ccc4c(c3)C(=O)C(C(=O)C(C)c3ccc(F)cc3)C4=O)cc2C1=O)c1ccc(F)cc1 (stereo not drawn) [Example 243, 2-[2-(4-fluorophenyl)propanoyl]-5-({2-[2-(4-fluorophenyl)propanoyl]-1,3-dioxo-2,3-dihydro-1H-inden-5-yl}sulfonyl)-2,3-dihydro-1H-indene-1,3-dione]				19	21
CC[C@H](NC(=O)OCc1ccccc1)C(=O)C1C(=O)c2ccc(S(=O)(=O)c3ccc4c(c3)C(=O)C(C(=O)[C@H](CC)NC(=O)OCc3ccccc3)C4=O)cc2C1=O (stereo partly drawn) [Example 166]	59	84	3.4		
COCCOCC(=O)C1C(=O)c2ccc(C(=O)c3ccc4c(c3)C(=O)C(C(=O)COCCOC)C4=O)cc2C1=O (stereo not drawn) [Example 395, 2-[2-(2-methoxyethoxy)acetyl]-5-{2-[2-(2-methoxyethoxy)acetyl]-1,3-dioxo-2,3-dihydro-1H-indene-5-carbonyl}-2,3-dihydro-1H-indene-1,3-dione]				2	13
C[C@H]1C[C@@H](C(=O)C2C(=O)c3ccc(S(=O)(=O)c4ccc5c(c4)C(=O)C(C(=O)[C@@H]4C[C@H](C)CN4C(=O)OC(C)(C)C)C5=O)cc3C2=O)N(C(=O)OC(C)(C)C)C1 (stereo partly drawn) [Example 224, tert-butyl (2S,4S)-2-[5-({2-[(2S,4S)-1-[(tert-butoxy)carbonyl]-4-methylpyrrolidine-2-carbonyl]-1,3-dioxo-2,3-dihydro-1H-inden-5-yl}sulfonyl)-1,3-dioxo-2,3-dihydro-1H-indene-2-carbonyl]-4-methylpyrrolidine-1-carboxylate]	100	95	2.2		
COCCCNC(=O)C1C(=O)c2ccc(S(=O)(=O)c3ccc4c(c3)C(=O)C(C(=O)NCCCOC)C4=O)cc2C1=O (stereo not drawn) [Example 90, N-(3-methoxypropyl)-5-({2-[(3-methoxypropyl)carbamoyl]-1,3-dioxo-2,3-dihydro-1H-inden-5-yl}sulfonyl)-1,3-dioxo-2,3-dihydro-1H-indene-2-carboxamide]			4.2		
COc1cccc(NC(=O)C2C(=O)c3ccc(C(=O)c4ccc5c(c4)C(=O)C(C(=O)Nc4cccc(OC)c4)C5=O)cc3C2=O)c1 (stereo not drawn) [Example 23, 5,5′-carbonylbis(1,3-dioxo-indan-2-carboxylic acid (3-methoxyphenyl)-amide)]	84	92	1.75		
